Measurements reported in PubChem BioAssay (NCI).
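In this assay, cells in 96-well plates receive the compound at five concentrations for 48 hours. Endpoints are linearly interpolated between the surrounding concentrations. At the GI50, growth is halved. TGI denotes the concentration required for complete inhibition of growth.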

Experiments:
Assay in all cases: NCI tumour cell line growth inhibition, 48 h
[1] = tested on: ACHN renal
[2] = tested on: MCF7 breast
[3] = tested on: NCI-H522 lung
[4] = tested on: SF-268 CNS
[5] = tested on: COLO 205 colon
[6] = tested on: A498 renal
[7] = tested on: UACC-62 melanoma
[8] = tested on: OVCAR-5 ovarian
[9] = tested on: T-47D breast
[10] = tested on: OVCAR-3 ovarian
[11] = tested on: CCRF-CEM leukemia
[12] = tested on: SF-295 CNS
[13] = tested on: IGROV1 ovarian
[14] = tested on: UO-31 renal
[15] = tested on: SNB-19 CNS
[16] = tested on: OVCAR-8 ovarian
[17] = tested on: A549 NSCLC
[18] = tested on: MOLT-4 leukemia
[19] = tested on: 786-0 renal
[20] = tested on: EKVX NSCLC
[21] = tested on: OVCAR-4 ovarian
[22] = tested on: SW-620 colon
[23] = tested on: NCI-H226 lung
[24] = tested on: UACC-257 melanoma
[25] = tested on: SK-MEL-28 melanoma
[26] = tested on: K-562 leukemia
[27] = tested on: SK-OV-3 ovarian
[28] = tested on: LOX IMVI melanoma
[29] = tested on: DU-145 prostate
[30] = tested on: MALME-3M melanoma
[31] = tested on: SK-MEL-2 melanoma
[32] = tested on: MDA-MB-435
[33] = tested on: CAKI-1 renal
[34] = tested on: M14 melanoma
[35] = tested on: RXF 393 renal
[36] = tested on: NCI/ADR-RES ovarian
[37] = tested on: SN12C renal
[38] = tested on: HS 578T breast
[39] = tested on: TK-10 renal
[40] = tested on: BT-549 breast
[41] = tested on: HOP-62 NSCLC
[42] = tested on: SK-MEL-5 melanoma
[43] = tested on: HCT-15 colon
[44] = tested on: NCI-H23 lung
[45] = tested on: U251 CNS
[46] = tested on: SF-539 CNS
[47] = tested on: PC-3 prostate
[48] = tested on: NCI-H460 lung
[49] = tested on: HT29 colon
[50] = tested on: HCT-116 colon
[51] = tested on: MDA-MB-231 breast
[52] = tested on: SR leukemia
[53] = tested on: SNB-75 CNS
[54] = tested on: HL-60(TB) leukemia
[55] = tested on: HCC-2998 colon
[56] = tested on: RPMI-8226 leukemia
[57] = tested on: HOP-92 NSCLC
[58] = tested on: KM12 colon

Compound: NC(=O)c1cc(I)ccc1NC(=O)/C=C/c1ccccc1
- GI50 [1]: 3.15 µM
- TGI [1]: > 47.1 µM
- GI50 [2]: 0.403 µM
- TGI [2]: > 42.6 µM
- GI50 [3]: 1.07 µM
- GI50 [4]: 1.4 µM
- TGI [4]: 23.7 µM
- GI50 [5]: 0.318 µM
- TGI [5]: 1.24 µM
- GI50 [6]: 1.28 µM
- TGI [6]: 13 µM
- GI50 [7]: 0.457 µM
- TGI [7]: > 77.6 µM
- GI50 [8]: 3.17 µM
- TGI [8]: > 51.8 µM
- GI50 [9]: 0.597 µM
- TGI [9]: > 65.7 µM
- GI50 [10]: 0.32 µM
- TGI [10]: 1.01 µM
- GI50 [11]: 0.36 µM
- GI50 [12]: 0.326 µM
- TGI [12]: 3.38 µM
- GI50 [13]: 0.917 µM
- TGI [13]: 19.9 µM
- GI50 [14]: 1.77 µM
- TGI [14]: > 48.9 µM
- GI50 [15]: 0.645 µM
- TGI [15]: 13.7 µM
- GI50 [16]: 1.18 µM
- TGI [16]: 27.8 µM
- GI50 [17]: 1.33 µM
- TGI [17]: > 100 µM
- GI50 [18]: 0.539 µM
- GI50 [19]: 1.32 µM
- TGI [19]: > 68.1 µM
- GI50 [20]: 0.787 µM
- TGI [20]: > 68.8 µM
- GI50 [21]: 1.84 µM
- TGI [21]: 30.5 µM
- GI50 [22]: 0.48 µM
- TGI [22]: > 100 µM
- GI50 [23]: 1.96 µM
- TGI [23]: 40.3 µM
- GI50 [24]: 14.3 µM
- TGI [24]: 53.3 µM
- GI50 [25]: 1.17 µM
- TGI [25]: > 86.8 µM
- GI50 [26]: 0.668 µM
- TGI [26]: > 100 µM
- GI50 [27]: 0.604 µM
- TGI [27]: 12.8 µM
- GI50 [28]: 3.18 µM
- TGI [28]: > 100 µM
- GI50 [29]: 0.352 µM
- TGI [29]: 2.97 µM
- GI50 [30]: 2.1 µM
- TGI [30]: > 100 µM
- GI50 [31]: 2.25 µM
- TGI [31]: > 56.6 µM
- GI50 [32]: 0.192 µM
- TGI [32]: 0.445 µM
- GI50 [33]: 0.652 µM
- TGI [33]: 24.8 µM
- GI50 [34]: 0.389 µM
- TGI [34]: > 100 µM
- GI50 [35]: 0.989 µM
- TGI [35]: 22.8 µM
- GI50 [36]: 0.351 µM
- TGI [36]: 3.92 µM
- GI50 [37]: 0.69 µM
- TGI [37]: > 63.4 µM
- GI50 [38]: 0.364 µM
- TGI [38]: 15.4 µM
- GI50 [39]: 2.9 µM
- TGI [39]: 44.1 µM
- GI50 [40]: 2.39 µM
- TGI [40]: 27.5 µM
- GI50 [41]: 1.12 µM
- TGI [41]: 23.8 µM
- GI50 [42]: 0.38 µM
- TGI [42]: 12.5 µM
- GI50 [43]: 0.587 µM
- TGI [43]: > 100 µM
- GI50 [44]: 1 µM
- TGI [44]: > 44.9 µM
- GI50 [45]: 0.504 µM
- TGI [45]: 14.6 µM
- GI50 [46]: 0.36 µM
- TGI [46]: 1.53 µM
- GI50 [47]: 0.605 µM
- TGI [47]: > 100 µM
- GI50 [48]: 0.417 µM
- TGI [48]: 3.44 µM
- GI50 [49]: 0.374 µM
- TGI [49]: > 31.8 µM
- GI50 [50]: 0.475 µM
- TGI [50]: > 40.3 µM
- GI50 [51]: 0.769 µM
- TGI [51]: > 67.2 µM
- GI50 [52]: 0.419 µM
- GI50 [53]: 0.316 µM
- TGI [53]: 8.68 µM
- GI50 [54]: 0.13 µM
- TGI [54]: 0.912 µM
- GI50 [55]: 1.38 µM
- TGI [55]: 30.9 µM
- GI50 [56]: 0.357 µM
- TGI [56]: 4.96 µM
- GI50 [57]: 17 µM
- TGI [57]: 97.7 µM
- GI50 [58]: 0.41 µM
- TGI [58]: > 37.4 µM
